Measurements taken from US11957761B2, “Compounds having α4β7 integrin inhibition activity” (priority 2021, dated 2024).

Assays:
[1] = in vivo; settings: male, rat, plasma, iv, 510 nmol/kg
Experimental: Sprague Dawley or Wistar rats (males with a body weight of approximately 250-350 g) were given a single intravenous (i.v. bolus) injection of the peptide to be tested. Following i.v. administration of compound 1 (dose 510 nmol/kg, dosing volume […]), blood samples were drawn at 10 min, 15 min, 40 min, 1 h, 2 h, 4 h, 8 h, 24 h post-dose. At each sampling time point, samples from the rats were drawn by tail cut. The dosing vehicle was 20 mM phosphate buffer, 260 mM mannitol, pH 7.
(§1) Plasma samples were analyzed after protein precipitation by liquid chromatography mass spectrometry (LC-MS/MS). Individual plasma concentrations were used for calculation of the pharmacokinetic parameters using the non-compartmental approach in Phoenix WinNonlin 8.3 or a later version. Plasma terminal elimination half-life (T½) was determined as ln(2)/λz where λz is the magnitude of the slope of the log linear regression of the log concentration versus time profile during the terminal phase. AUCinf is the area under the plasma concentration−time curve extrapolated to infinity (AUCinf=AUClast+Clast/λz, where Clast is the last observed plasma concentration). C0 is the plasma concentration at the dosing time intercept and is back extrapolated by log-linear regression of the first two data points.

[2] = Pharmacokinetics in Beagle dogs, single s.c. and i.v. injection (Example 5); type: in vivo; settings: male, plasma, 200 ug/kg, dog
Description: The dosing vehicle was PBS buffer, pH 7.

[3] = in vivo; settings: male, Beagle, dog, plasma, sc
Experimental: Beagle dogs (males with a body weight of approximately 10-12 kg) were given a single subcutaneous (s.c.) injection of the peptides to be tested. Following s.c. administration of the selected compounds (dose 10, 20, 50, 100, 200 and 400 μg/kg), dosing volume 0.1 m/kg, blood samples were drawn at 0, 3, 6, 8, 12, 24, 48, 72, 96, 120, 144, 168, 192, 216, 240, 264, 288, 312, 336, 576, 744, 936, 1104 and 1272 hours.
Blood was sampled through a venflon on day 1 (excluding the 8-hour timepoint). At the 8-hour sampling time, and the sampling timepoints hereafter, the blood was be sampled through v. jugularis with a vacutainer and vacutainer needle. The dosing vehicle was PBS buffer, pH 7.
as §1, with “is” for “is the plasma concentration at the dosing time intercept and is”

[4] = Pharmacokinetics in rats, single i.v. bolus (Example 11); type: in vivo, Sprague Dawley or Wistar rats; settings: male, plasma, iv, rat, 511 nmol/kg
Experimental: Sprague Dawley or Wistar rats (males with a body weight of approximately 250-350 g) were given a single intravenous (i.v. bolus) injection of the peptide to be tested. […] At each sampling time point, samples from the rats were drawn by tail cut. The dosing vehicle was 20 mM phosphate buffer, 260 mM mannitol, pH 7.

[5] = molecular target: Integrin α4β7-MAdCAM-1 (Homo sapiens, UniProt P13612+P26010); test: cell-based
Chain of Integrin α4β7-MAdCAM-1 (P13612 34-1032): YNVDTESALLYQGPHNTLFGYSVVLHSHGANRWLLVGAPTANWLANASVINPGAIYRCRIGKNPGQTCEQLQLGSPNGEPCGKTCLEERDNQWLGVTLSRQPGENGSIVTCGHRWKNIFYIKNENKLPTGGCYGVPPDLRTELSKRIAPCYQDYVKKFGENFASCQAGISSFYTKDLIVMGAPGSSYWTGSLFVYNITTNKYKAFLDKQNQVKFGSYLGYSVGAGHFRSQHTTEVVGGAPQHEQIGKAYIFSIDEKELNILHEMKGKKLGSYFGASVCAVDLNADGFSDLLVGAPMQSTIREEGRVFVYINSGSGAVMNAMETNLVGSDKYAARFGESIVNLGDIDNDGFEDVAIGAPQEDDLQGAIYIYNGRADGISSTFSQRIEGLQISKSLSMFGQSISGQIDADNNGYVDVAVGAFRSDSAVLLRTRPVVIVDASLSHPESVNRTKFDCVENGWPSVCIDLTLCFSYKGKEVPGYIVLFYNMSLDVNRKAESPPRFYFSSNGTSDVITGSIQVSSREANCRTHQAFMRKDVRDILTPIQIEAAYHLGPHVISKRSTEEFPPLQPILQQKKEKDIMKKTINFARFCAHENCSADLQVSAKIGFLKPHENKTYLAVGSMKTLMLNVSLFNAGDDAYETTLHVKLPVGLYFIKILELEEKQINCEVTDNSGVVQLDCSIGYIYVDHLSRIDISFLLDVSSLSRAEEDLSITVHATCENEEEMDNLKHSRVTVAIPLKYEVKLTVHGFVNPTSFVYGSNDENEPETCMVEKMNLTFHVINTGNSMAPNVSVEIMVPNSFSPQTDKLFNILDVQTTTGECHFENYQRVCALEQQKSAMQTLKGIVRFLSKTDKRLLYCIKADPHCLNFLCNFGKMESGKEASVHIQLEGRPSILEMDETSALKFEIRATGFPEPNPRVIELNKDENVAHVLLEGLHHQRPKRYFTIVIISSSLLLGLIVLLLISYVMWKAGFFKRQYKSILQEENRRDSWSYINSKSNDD
Chain of Integrin α4β7-MAdCAM-1 (P26010 20-798): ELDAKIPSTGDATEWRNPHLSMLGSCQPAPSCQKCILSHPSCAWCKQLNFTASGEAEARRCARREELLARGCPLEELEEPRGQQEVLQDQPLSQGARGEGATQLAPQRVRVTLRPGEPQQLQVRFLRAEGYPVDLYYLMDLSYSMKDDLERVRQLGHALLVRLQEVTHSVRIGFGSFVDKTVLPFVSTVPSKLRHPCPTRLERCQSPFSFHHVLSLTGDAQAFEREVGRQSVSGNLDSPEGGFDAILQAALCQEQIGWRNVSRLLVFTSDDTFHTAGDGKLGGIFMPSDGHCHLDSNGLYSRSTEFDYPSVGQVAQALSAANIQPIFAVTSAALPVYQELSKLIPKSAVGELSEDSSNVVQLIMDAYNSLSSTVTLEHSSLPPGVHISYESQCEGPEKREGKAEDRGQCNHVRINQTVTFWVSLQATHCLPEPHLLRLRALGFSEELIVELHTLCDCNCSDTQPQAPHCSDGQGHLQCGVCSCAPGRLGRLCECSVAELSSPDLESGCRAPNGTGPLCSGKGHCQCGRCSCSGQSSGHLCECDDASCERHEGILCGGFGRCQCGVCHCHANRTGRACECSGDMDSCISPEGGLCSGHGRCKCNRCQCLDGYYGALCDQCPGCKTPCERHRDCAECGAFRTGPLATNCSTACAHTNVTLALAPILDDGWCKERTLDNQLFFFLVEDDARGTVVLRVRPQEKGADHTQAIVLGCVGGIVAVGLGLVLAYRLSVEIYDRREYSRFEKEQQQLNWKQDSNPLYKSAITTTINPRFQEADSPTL
Experimental: Recombinant human MAdCAM-1 (rhMAdCAM-1) was obtained from R&D systems (Cat #6056-MC-050).
Binding buffer (1.5 mM CaCl2, 1 mM MnCl2, 100 mM NaCl, 50 mM TRIS-HCl (pH 7.5)
Cells: The human B lymphocyte cell line RPMI 8866 was obtained from Merck via ECACC (European collection of authenticated cell cultures) (Cat #95041316 and lot #14G012).
Day 0: RPMI 8866 cells were split to a concentration of 500.000 cells/mL.
A Maxisorp plate was coated with 100 μL/well of 1 μg/mL rhMAdCAM-1 in coating buffer. Plate was sealed with TopSeal A plus and incubated at 4° C. overnight.
Day 1: The plate was washed twice with 150 μL wash buffer and then blocked with 250 μL/well blocking buffer (1% BSA in PBS) for one hour at room temperature. CFSE Celltrace stock solution was prepared immediately prior to use by adding 18 μL of DMSO to one vial of CellTrace™ reagent and mixing well. […]
The cells were pelleted by centrifugation and resuspended in fresh pre-warmed complete culture medium and the cells were counted. […]
After the last wash, 100 μL of PBS (without Mg^2+ and Ca^2+) was added to each well and the fluorescence was read (Ex485/Em535) using a plate reader (Envision 2105 Multimode plate reader). To calculate the concentration response, the fluorescence value of control wells not containing cells was subtracted from each test well.
IC50 values were calculated using 4-parameter nonlinear fit of the data.

Work on `CC[C@H](C)[C@@H]1NC(=O)[C@H](CC(=O)O)NC(=O)[C@H](CC(C)C)NC(=O)c2ccc(-c3ccc(N4CCN(C(=O)c5ccccc5-c5ccccc5C(=O)N5CCN(c6ccc(-c7ccc8cc7CNC(=O)[C@@H]7CCCN7[C@H](C(=O)NC(C)(C)C)[C@H](C)NC(=O)[C@H]([C@@H](C)CC)NC(=O)[C@H](CC(=O)O)NC(=O)[C@H](CC(C)C)NC8=O)cc6)CC5)CC4)cc3)c(c2)CNC(=O)[C@@H]2CCCN2[C@H](C(=O)NC(C)(C)C)[C@H](C)NC1=O` [Compound 1, 2,2′-((S,S,S,S,S,S,12S,8S, 11S,14S,17S,18S)-((([1,1′-biphenyl]-2,2′-dicarbonyl)bis(piperazine-4,1-diyl))bis(4,1-phenylene))bis(14-((S)-sec-butyl)-18-(tert-butylcarbamoyl)-8-isobutyl-17-methyl-2,6,9,12,15-pentaoxo-3,7,10,13,16-pentaaza-1(2,1)-pyrrolidina-5(1,3)-benzenacyclooctadecaphane-56,11-diyl))diacetic acid] yielded an AUC(0-inf) [1] of 32.2 µM·h, a half-life [1] of 5.61 h and an AUC(0-inf) ([2]; IV) of 19.3 µM·h. For the same molecule, the Cmax ([2]; IV) was 743 nM, the half-life ([2]; IV) was 53 h and the AUC(0-inf) ([2]; SC) was 21.8 µM·h. It also gave a Cmax ([2]; SC) of 127 nM, a half-life ([2]; SC) of 95.2 h and an AUC(0-inf) ([3]; 10 ug/kg) of 2.46 µM·h. For the same molecule, the Cmax ([3]; 10 ug/kg) was 18.1 nM, the Tmax ([3]; 10 ug/kg) was 20 h and the half-life ([3]; 10 ug/kg) was 340 h. It also gave an AUC(0-inf) ([3]; 20 ug/kg) of 5.68 µM·h, a Cmax ([3]; 20 ug/kg) of 43.1 nM and a Tmax ([3]; 20 ug/kg) of 20 h. For the same molecule, the half-life ([3]; 20 ug/kg) was 460 h, the AUC(0-inf) ([3]; 50 ug/kg) was 11.6 µM·h and the Cmax ([3]; 50 ug/kg) was 102 nM. The Tmax ([3]; 50 ug/kg) was 20 h, the half-life ([3]; 50 ug/kg) was 340 h and the AUC(0-inf) ([3]; 100 ug/kg) was 58.6 µM·h. For the same molecule, the Cmax ([3]; 100 ug/kg) was 504 nM, the Tmax ([3]; 100 ug/kg) was 20 h and the half-life ([3]; 100 ug/kg) was 230 h. It also gave an AUC(0-inf) ([3]; 200 ug/kg) of 72.5 µM·h, a Cmax ([3]; 200 ug/kg) of 417 nM and a Tmax ([3]; 200 ug/kg) of 20 h. The half-life ([3]; 200 ug/kg) was 230 h, the AUC(0-inf) ([3]; 400 ug/kg) was 158 µM·h and the Cmax ([3]; 400 ug/kg) was 927 nM. For the same molecule, the Tmax ([3]; 400 ug/kg) was 20 h, the half-life ([3]; 400 ug/kg) was 260 h and the AUC(0-inf) [4] was 34 µM·h. The C0 [4] was 9020 nM, the half-life [4] was 7.88 h and the IC50 [5] was 35 nM.
